{"source": "patent US11624095B2", "about": "“Method of quantifying HIV reservoirs by induced transcription based sequencing” (priority 2017, dated 2023)", "key": {"[1]": {"system": "HIV in purified CD4+ T-cells from HIV-1-infected men and women", "test": "modified EDITS assay quantifying spreading viral infection (HIV RNA+ cells after Con A stimulation)", "assay_type": "cell-based", "conditions": "for spreading infection / HIV RNA induction: 300 pg/ml 17β-estradiol, 9 days; for spreading infection: absence of raltegravir, women compared to men (p=0.00052); for HIV RNA induction: women compared to men (p=0.00039); for number of HIV RNA positive cells per million: CD4+ memory cells stimulated 9 days with Con A in presence of 1 μM raltegravir", "source_text": "It is contemplated that the quantification of the latent HIV-1 can occur before, during, and after the course of a therapeutic regimen in order to determine the efficacy of a chosen therapeutic regimen. One way to assess the efficacy of the HIV-1 therapeutic is to compare the latent HIV-1 reactivation pre and post therapeutic administration. The amount of cell associated inducible HIV env RNA measured in the sample can then be compared to a control to determine the efficacy of the antiviral and/or LRAs. The control can be the amount of cell associated inducible HIV env RNA measured in infected cells prior to the administration of the one or more antiviral and/or latency reversing agents. In order to evaluate sex differences in CD4+ T-cells from male and female subjects, methods described herein can be modified to include an additional in vitro step allowing for the quantification of spreading viral infections in the presence of candidate agents. Therefore, in optional embodiments, purified CD4+ T-cells are stimulated with an HIV transcription inducing agent in the absence or presence of an antiretroviral agent to block spreading of HIV infection and a candidate agent. The amount of newly infected cells can be determined by measuring the increase in HIV RNA+ cells in the absence of the infection blocking agent compared to cells stimulated in the presence of the infection blocking agent.\nThe number of newly infected cells was determined, in accordance with the methods described herein, by measuring the HIV RNA+ cells in the absence of raltegravir after nine days. It was shown that the addition of 17β-estradiol blocked both HIV RNA induction and spreading infection in women compared to men, consistent with previous observations that the estrogen receptor-1 (ESR-1) can act as a repressor of HIV transcription.\nCD4^+ T-cells were isolated from cryopreserved PBMCs and the frequencies of cells harboring total and integrated HIV-1 DNA (tHIV and iHIV) were measured relative to CD3 copy number. Cell associated (CA) unspliced (usHIV) RNA was quantified and multiply-spliced (msRNA) was measured using the identical semi-nested PCR with different primers. Low level viremia was quantified from seven milliliters of plasma with PCR amplification targeting a conserved, untranslated HIV-1 gag RNA sequence (the HMMCgag assay). Inducible HIV-1 RNA was measured using the TILDA assay; briefly, purified CD4^+ T-cells are stimulated maximally with PMA/ionomycin, serially diluted, lysed and HIV-1 msRNA measured with a two-step RT-PCR. Maximum likelihood estimates based on the number of positive wells are used to determine the frequency of cells harboring inducible HIV-1. A modified version of the EDITS assay was used to quantify spreading viral infections. Purified CD4^+ T-cells were stimulated with the mitogen Concanavalin A (Con A) in the absence or presence of 1 μM Raltegravir (to block spreading infection) and absence or presence of 300 pg/ml 17β-estradiol. Newly infected cells were determined after nine days as the increase in HIV RNA+ cells in the absence of Raltegravir.\nAs a complementary method to evaluate sex differences CD4^+ T-cells from a subset of men (n=6) and women (n=6) who underwent leukapheresis were evaluated for the level of inducible replication competent virus using a modified EDITS assay (FIG. 10). Purified CD4^+ memory cells were stimulated for 9 days to induce HIV transcription in the presence or absence of raltegravir and number of HIV RNA^+ cells was quantified by EDITS. […] In the absence of raltegravir, there were 348 RNA positive cells per million for the women and 457 RNA positive cells per million for the men, indicating spreading infection."}, "[2]": {"system": "latent HIV proviruses in memory CD4+ T-cells of HIV-1-infected subjects", "test": "EDITS assay, inducible HIV env RNA in resting memory cells after ex vivo activation", "assay_type": "cell-based", "source_text": "We developed a novel deep sequencing-based protocol (EDITS, Envelope Detection by Induced Transcription-based Sequencing) to measure RNA induction, capable of detecting inducible cell-associated HIV RNA. The EDITS Assay measures inducible HIV envelope RNA in infected cells, including patient-derived samples. The HIV envelope mRNA has been chosen because the splicing pattern covers a significant portion of the proviral genome, thus minimizing readouts from defective proviruses with large deletions (FIG. 1). Briefly, 1.25×10^6 resting memory cells from aviremic (<20 copies/ml) HIV-1-infected subjects are induced by one or more latency reversing agents (LRAs) and/or by engagement of the T-cell receptor (TCR).\nFIG. 6 summarizes the protocol of the EDITS assay. Briefly, blood is collected from an HIV-infected individual and peripheral blood mononuclear cells (PBMCs) are purified. CD4^+ memory cells are negatively isolated using robotic magnetic bead isolation technology (Stemcell, 19157RF) and allowed to equilibrate in RPMI with 10% FBS, Primocin and 30 IU/ml of IL-2 overnight. 1.25 million cells are stimulated with one or more LRA (e.g., Concanavalin A) for 24 hours. […]\nFastq files are analyzed using a proprietary pipeline (bioinformatics tool) to not only quantify the amount of HIV-1 present in any given sample but also to determine viral diversity."}, "[3]": {"conditions": "Con A stimulation, listed as estrogen"}}, "data": [{"compound": "C[C@]12CC[C@@H]3c4ccc(O)cc4CC[C@H]3[C@@H]1CC[C@@H]2O", "note": "[17β-estradiol]", "values": [{"measurement": "spreading infection", "setting": "[1]; Con A stimulation", "value": "potently blocked"}, {"measurement": "spreading infection", "setting": "[1]; [3]", "value": "potently blocked"}, {"measurement": "HIV RNA induction", "setting": "[1]; Con A stimulation", "value": "potently blocked"}, {"measurement": "HIV RNA induction", "setting": "[1]; [3]", "value": "potently blocked"}, {"measurement": "proviral reactivation", "setting": "[2]; samples activated ex vivo by TCR induction in presence and absence of Estradiol (FIG. 4)", "value": "potent inhibitor of proviral reactivation"}]}, {"compound": "Cc1nnc(C(=O)NC(C)(C)c2nc(C(=O)NCc3ccc(F)cc3)c(O)c(=O)n2C)o1", "note": "[raltegravir]", "values": [{"measurement": "viral spread", "setting": "[1]; 1 μM raltegravir, 9 days culture, Con A stimulation", "value": "blocked"}, {"measurement": "number of HIV RNA positive cells per million", "setting": "[1]; men (n=6)", "value": "80 RNA positive cells per million"}, {"measurement": "number of HIV RNA positive cells per million", "setting": "[1]; women (n=6)", "value": "74 RNA positive cells per million"}]}, {"compound": "Concanavalin A", "values": [{"measurement": "efficiency of activation of RNA from proviruses", "setting": "[2]; strong LRAs such as TCR activation or mitogen activation, applicant's estimate", "value": "greater than 75%"}]}]}
